{
  "source": "patent US20150224170A1",
  "about": "(priority 2010, published 2015)",
  "key": {"NFAT3": {"system": "NFAT3", "format": "cell-based, rat", "details": "10 uM"}, "[1]": {"system": "SINV-infected differentiated CSM14.1 cells", "format": "cell-based, rat", "details": "10 uM"}, "[2]": {"system": "Sindbis virus (SINV, TE strain)", "format": "cell-based"}},
  "data": [
    {"compound": "CCCOc1ccccc1-c1nc2nn[nH]c2c(=O)[nH]1", "note": "[zaprinast]", "values": [
      {"measurement": "cytoplasmic NFAT3 (Western blot)", "setting": "NFAT3", "value": "remained constant at all timepoints"},
      {"measurement": "effect on NFAT3 activation", "setting": "NFAT3", "value": "no effect"},
      {"measurement": "nuclear NFAT3 (Western blot)", "setting": "NFAT3", "value": "remained constant at all timepoints"},
      {"measurement": "viability / survival of infected cells", "setting": "[1]", "value": "did not detectably affect cell survival"},
      {"measurement": "viral titers / viral replication versus untreated SINV infection (in words)", "setting": "[2]", "value": "tended to slightly increase viral titers at most time points"}
    ]}
  ]
}
